Test results from US9546157B2, “Asymmetric piperidinyl-substituted ureas as medicines” (Helsinn Healthcare SA, priority 2014, dated 2017).
“Also recorded” adds a separate entry of the source.

System: female Sprague-Dawley rats
Experiment: Binge eating model in non-estrous female rats (food restriction + stress, HPF intake)
Format: in vivo, rat
Details: for 2-h chow food intake during binge eating test / 24-h chow food intake after binge eating test: acute administration (compounds 3 and 30 mg/kg, Topiramate 60 mg/kg)
Experimental: In this Example, the therapeutic potential of compounds were tested for their ability to inhibit binge eating. The animal model used was developed to explore the combination of food restriction and stress. […] Considering the reliability and the robustness of this model, it was adopted to test the inventive compounds.
A total of N=117, 52-day-old female Sprague-Dawley rats (175-200 g) were used. Rats were acclimated in individual cages with metallic walls; the floor and the front wall made of metallic grid. The dimensions of the cage floor being 30 cm×30 cm; the cage is 30 cm high. A front door (30 cm×20 cm) made of metallic grid was positioned in the anterior wall of the cage to gain access to the inside of the cage; the remaining part of the front wall was equipped with a drinking burette.
Rats were kept in a room at constant temperature (20-22° C.) and humidity (45-55%) under a 12-h light/dark cycle (lights on at 08:00 am) with ad lib chow and water. All procedures were conducted in adherence to the European Community Directive for Care and Use of Laboratory Animals.
Rats were offered food pellets, 4RF18, Mucedola, Settimo Milanese, Italy (2.6 kcal/g). The Highly Palatable Food (HPF) was prepared by mixing:
Rats were exposed to 3 consecutive 8-day cycles followed by the final test on day 25:
a) the control group (NR+NS) had chow ad libitum for 4 days, on days 5-6 it received chow+HPF for 2 h; on days 7-8 it had chow ad libitum; on day 25 it was not exposed to stress;
b) the second group (R+S) had chow restricted to 66% of the normal intake for 4 days, was offered chow and HPF (2 h) on days 5-6 and only chow on days 7-8; on day 25 it […].
Body weights and food intake were recorded daily. Food intake is expressed as mean kilocalories per kilogram ingested±SEM.
Therefore, immediately after the test on day 25, vaginal smears were collected and analyzed under microscope to assess the ovarian phase, and data from rats in the estrous phase were not included in the statistical analysis. Vaginal smears were analyzed by an experienced experimenter blind to treatment conditions.
For 15 min, the container (China coffee cup) containing HPF is placed outside the cage; the container handle is hooked to the top wire wall of the cage in the hollow part where food pellets are usually offered. In these conditions, the animal is able to see the cup in which it received HPF on days 5, 6, 13, and 14 of the first two cycles, is able to see in part the HPF itself, and is able to smell its odour. In this 15-min period, the rat engages in repeated movements of the forepaws, head, and trunk aimed at obtaining the HPF, but it is not able to reach it. Rats undergo the stressful procedure between 10.00 and 12.00 am. After 15 min, the cup is placed inside the cage of the rats in the stress group (R+S), so that the HPF became accessible to the rat.
100 mg of each compound (H0816, H0860, H0847 and H0900) was accurately weighed and suspended in 13.33 ml of 0.5% carboxymethyl cellulose sodium salt (CMC, Sigma-Aldrich Cat. C4888, lot 120M0216V) solution. The lower dose solution was prepared by dilution of 30 mg/ml suspension with 0.5% CMC solution. Suspensions were prepared freshly on test day. Vehicle was composed by a solution of 0.5% carboxymethyl cellulose sodium salt and was prepared by dissolving 1 g of CMC in 200 ml of distilled water. 180 mg of Topiramate was accurately weighed and suspended in 12 ml of 0.5% CMC solution. Compounds (vehicle and active principles) were administered by gavage in a volume of 4 ml/kg of body weight one hour before access to HPF.
All data are expressed as the mean±s.e.m. and each value reflects the mean number of animals per group as described in the legends. For data evaluation, the analysis of variance (ANOVA) was used followed by post-hoc (Bonferroni's) test when appropriate. Statistical significance was set at P<0.05. The Software used for the Graphs was Origin 7.0. […]

[1] = first test, 30 mg/kg by gavage 1 h before access to HPF, vs R+S vehicle
[2] = first test, 3 and 30 mg/kg by gavage
[3] = first test, doses of 3 and 30 mg/kg by gavage, acute administration
[4] = second test, H0816 3, 10 and 30 mg/kg, Topiramate 60 mg/kg

With `C[C@H](NC(=O)N(C)C1CCN(C)CC1)c1ccc(-c2cncc(F)n2)c(Cl)c1Cl` [Compound H0847, (S)-3-(1-(2,3-dichloro-4-(6-fluoropyrazin-2-yl)phenyl)ethyl)-1-methyl-1-(1-methylpiperidin-4-yl)urea] the “HPF intake (binge eating) in R+S rats, post-hoc” value (“HPF intake … post-hoc” below) (first test, 3 mg/kg by gavage 1 h before access to HPF, vs R+S vehicle) was “statistically significant at 15, 30 and 60 min after HPF access”, the “HPF intake … post-hoc” value [1] was “significantly (P<0.01) reduced HPF intake at all time points” and the “animals' gross behaviour during the 2-h test” value [2] was “mild sedation”. The “2-h chow food intake during binge eating test” value (first test) was “significantly increased 2-h chow food intake”, the “24-h chow food intake after binge eating test” value (“24-h chow food intake” below) (first test) was “significantly increased 24-h chow food intake” and the “2-h HPF intake (binge eating) in R+S rats, overall (ANOVA)” value (“2-h HPF intake (binge eating)” below) [3] was “reduced binge eating episodes; also recorded: significant difference; also recorded: significantly reduced BE behaviour”.

With `C[C@H](NC(=O)N(C)C1CCN(C)CC1)c1ccc(-c2cnccn2)c(Cl)c1Cl` [Compound H0816, (S)-3-(1-(2,3-dichloro-4-(pyrazin-2-yl)phenyl)ethyl)-1-methyl-1-(1-methylpiperidin-4-yl)urea] the “HPF intake … post-hoc” value [1] was “statistically significant (P<0.05) at 15 min time point”, the “animals' gross behaviour during the 2-h test” value [2] was “did not affect animals' gross behaviour” and the “2-h chow food intake during binge eating test” value (first test) was “did not modify 2-h chow intake”. For the same molecule, the “24-h chow food intake” value (first test) was “did not modify 24-h chow intake”, the “2-h HPF intake (binge eating)” value [3] was “reduced binge eating episodes; also recorded: significant difference; also recorded: significantly reduced BE behaviour” and the “HPF intake … post-hoc” value (second test, 10 mg/kg by gavage 1 h before access to HPF) was “statistically significant (P<0.05) at 15 min time point”. The “HPF intake … post-hoc” value (second test, 30 mg/kg by gavage 1 h before access to HPF) was “completely blocked (P<0.01) the BE episode at 15 min”, the “animals' gross behaviour during the 2-h test” value (second test, 3, 10 and 30 mg/kg by gavage) was “did not affect animals' gross behaviour” and the 2-h chow intake [4] was “did not modify”. The 24-h chow intake [4] was “did not modify” and the “2-h HPF intake (binge eating)” value (second test, doses of 3, 10 and 30 mg/kg by gavage) was “significant difference; also recorded: confirmed, dose dependently, its selective inhibitory effect on BE”.

`CC[C@H](NC(=O)N(C)C1CCN(C)CC1)c1ccc(-c2cnccn2)c(Cl)c1Cl` [Compound H0860, (S)-3-(1-(2,3-dichloro-4-(pyrazin-2-yl)phenyl)propyl)-1-methyl-1-(1-methylpiperidin-4-yl)urea] was tested, and the “2-h chow food intake during binge eating test” value (first test) was “significantly increased 2-h chow food intake”, the “24-h chow food intake” value (first test) was “significantly increased 24-h chow food intake” and the “2-h HPF intake (binge eating)” value [3] was “not statistically significant; also recorded: did not significantly reduce HPF intake; also recorded: did not affect HPF intake”.

With `CN1CCC(N(C)C(=O)N[C@H](c2ccc(-c3cnccn3)c(Cl)c2Cl)C(F)(F)F)CC1` [Compound H0900, (R)-3-(1-(2,3-dichloro-4-(pyrazin-2-yl)phenyl)-2,2,2-trifluoroethyl)-1-methyl-1-(1-methylpiperidin-4-yl)urea] the “HPF intake … post-hoc” value [1] was “statistically significant (P<0.01) at all time points”, the “animals' gross behaviour during the 2-h test” value [2] was “did not affect animals' gross behaviour” and the “2-h chow food intake during binge eating test” value (first test) was “did not modify 2-h chow intake”. For the same molecule, the “24-h chow food intake” value (first test) was “did not modify 24-h chow intake” and the “2-h HPF intake (binge eating)” value [3] was “reduced binge eating episodes; also recorded: significant difference; also recorded: significantly reduced BE behaviour”.
